Patent publication US20250152559A1, “METHODS FOR TREATING MYC-AMPLIFIED CANCER” (The Governing Council of the University of Toronto, priority 2023, published 2025)
Where “and” joins values, the source holds several entries; their conditions need not be identical. Equal entries are not always repeated.

How the values were obtained:
[1] = test system: de novo pyrimidine biosynthesis in flank tumor tissue; assay: LC-MS metabolome profiling of flank xenograft tissues of treated mice; type: in vivo; details: individual samples, listed as BAY
Procedure: In parallel to these experiments, subcutaneous flank xenografts were engrafted into two cohorts of mice, which were treated with the vehicle or R2. […] To investigate the pharmacokinetics of BAY in vivo, its concentration in plasma and brain tissues of healthy mice was directly quantified using an LC-MS approach. BAY was detected in both brains and plasma of mice undergoing treatment, however the plasma concentrations exceeded those of the brain by approximately 10-fold (FIG. 5H-I). To determine whether treatment with BAY affects de novo pyrimidine biosynthesis in vivo, changes in pyrimidine metabolism were measured in the brain in comparison to tumor tissues from the flank (FIG. 5J-K). Although BAY treatment impacted de novo pyrimidine metabolism in vivo in both brain and tumor tissues, with a similar pattern observed in vitro (FIG. 4A), the effect size was stronger in peripheral tumor tissue in comparison to brain tissue. Such findings further reflect the limited capacity for BAY to accumulate within the brain.
For metabolome profiling of tissues, ˜5 mg tissue were homogenized in 225 μL of −20° C. cold, methanol using a Bullet Blender Tissue Homogenizer (NextAdvance, Inc.) Bullet for 3 min. The homogenate was vortexed for 20 s and 750 μL of −20° C. cold methyl tertiary-butyl ether (MTBE) was added, and the mixture was vortexed for 10 s and shaken at 4° C. for 5 min. Next, 188 μL room temperature water was added and vortexed for 20 s to induce phase separation. After centrifugation for 5 min at 14,000×g, the bottom polar phase was collected and dried down. Metabolite extracts were reconstituted in LC-MS grade water/acetonitrile (50:50; v:v), vortexed for 1 min, sonicated for 15 min, and centrifuged at 16,000×g and 4° C. for 15 min to remove insoluble debris.
The LC-MS metabolomics and lipidomics analyses of the 3 NSC and 3 MB cell lines and tissues were performed on a UPLC-MS system consisting of an Orbitrap IQ-X Tribrid coupled to a Horizon Vanquish UPLC system (Thermo Fisher Scientific). The lipidomics analysis was conducted in positive-ion mode with a spray voltage of 3.5 kV while the metabolomics analysis was conducted in negative-ion mode with a spray voltage of −2.5 kV. The following source conditions were identical in both analyses and were set as follows: Sheath gas flow rate, 50 arbitrary units; Aux. gas flow rate, 10 arbitrary units; Sweep gas flow rate, 1 arbitrary unit; Ion transfer tube temp., 300° C.; Vaporizer temp., 350° C. The following acquisition parameters were used for MS1 analysis in both methods: resolution, 120,000, AGC target, 4e5. The maximum IT was set at […] for the lipidomics analysis and 200 ms for the metabolomics analysis. Data-dependent MS/MS parameters for the lipidomics analyses: resolution, 30,000; AGC target, 7.5e4; maximum IT, Dynamic (54 ms); time between Master Scans, 0.6 s; isolation window, 1.0 m/z; NCE/stepped nce, 20, 30, 40; intensity threshold, 5e4; exclude isotopes, on; dynamic exclusion, 3.0 s. Data-dependent MS/MS parameters for the metabolomics analyses: resolution. 15,000; AGC target, 7.5e4; maximum IT, Dynamic (22 ms); time between Master Scans, 0.6 s; isolation window, 1.0 m/z; NCE/stepped nce, 20, 30, 40, 50; intensity threshold, 5e4; exclude isotopes, on; dynamic exclusion, 5.0 s. To increase the total number of MS/MS spectra in the lipidomics analysis, five runs with iterative MS/MS exclusions were performed using the AcquireX function in Xcalibur (Thermo Fisher Scientific). In the metabolomics analysis, three runs with iterative MS/MS exclusions were performed using the AcquireX function. For the lipidomics analysis, chromatographic separation was achieved using a Waters Acquity UPLC CSH C18 (100 mm×2.1 mm i.d.; 1.7 μm) column injecting 2 μL. […] The column was equilibrated for 2 min at 15% B. The flow rate was set to 250 μL/min. The column temperature was maintained at 65° C. […]

[2] = test system: SU_MB002 cells genomic DNA; assay: Differential methylation analysis (Illumina EPIC array); type: cell-based, human
Procedure: Illumina Human Infinium MethylationEPIC (EPIC) BeadChip (Illumina, CA, USA) array was performed at The Centre for Applied Genomics, The Hospital for Sick Children (Toronto) using the manufacturer's standard protocol.
Raw IDAT files (annotation: ilm10b4.hg19) were processed using R (Version 4.1.2) and quality control and normalization was performed using minfi^76. Intensity and density plots were generated, and no samples were removed from the analysis as the mean detection p-values for all probed genomic positions were <0.01 for each sample. Probes with mean detection p-values >0.01 across all samples were excluded. Probes mapping sex chromosomes, single nucleotide polymorphisms (SNPs), and cross-hybridisation probes were removed. Quantile normalization was performed, and density plots were generated before and after normalization. Differential analysis was completed with beta values of 768467 CpGs for 8 samples comparing BAY to DMSO at 48 h and 72 h using limma^77. P-values were adjusted for False Discovery Rate (FDR) using Benjamini and Hochberg method, and a 10% FDR and log FC of >|0.1| cut-off was used.
Differentially methylated positions (DMPs) were annotated using the USCS (UCSC_RefGene_Name, UCSC_RefGene_Group and Relation_to_Island) from the Infinium MethylationEPIC Manifest. The analysis was performed focusing on DMPs within promoter islands (considering TSS1500, TSS200, 5′UTR and 1st exon as promotor regions). Enrichment analysis of unique genes (using UCSC RefGene Name) identified within DMPs at promoter islands was performed using Enrichr (ENCODE TF ChIP-seq 2015)^43.

[3] = flank tumor tissue of BAY-treated mice

**Q.** Which results are given for `CCn1c(CO)nn(-c2cc(O[C@@H](C)C(F)(F)F)c(C(=O)Nc3c(F)cccc3Cl)cc2F)c1=O` [BAY2402234]?
**A.** Glutamine normalized peak intensity (Area) [1, 3]: 55492788 and 50587148 and 68843176 and 56207472; N-Carbamoyl aspartic acid normalized peak intensity (Area) [1, 3]: 385157056 and 380028608 and 450759360 and 384681824; Orotic acid normalized peak intensity (Area) [1, 3]: 33617724 and 35906864 and 46970420 and 34348420; UDP-GluNAc normalized peak intensity (Area) [1, 3]: 2589539 and 2049874 and 3781049 and 10999488; UTP normalized peak intensity (Area) [1, 3]: 4036 and 1148 and 5307 and 1474; Uridine 5′-diphosphate (UDP) normalized peak intensity (Area) [1, 3]: 5654 and 1891 and 15124 and 5023; Uridine 5′-monophosphate normalized peak intensity (Area) [1, 3]: 17895140 and 14218088 and 25187528 and 9202930; Uridine normalized peak intensity (Area) [1, 3]: 1736921 and 2207031 and 3920911 and 1886173; dihydroorotic acid normalized peak intensity (Area) [1, 3]: 119216720 and 62149264 and 89191448 and 46399468; BAY-2402234 normalized peak intensity (Area) [1]: 249608 and 266857 and 361684 and 146195; DMPs in promoter islands ([2]; 48 h): 2/18; differentially methylated positions (DMPs), BAY vs vehicle ([2]; 48 h of treatment): 18; DMPs in promoter islands ([2]; 72 h): 123/751; differentially methylated positions (DMPs), BAY vs vehicle ([2]; 72 h of treatment): 751
